How the values were obtained:
Assay in all cases: relative viability (nuclei count vs DMSO), 5 days (fraction); higher = more cells survive
BMX-IN-1 + Palbociclib = compound: C=CC(=O)Nc1cc(-n2c(=O)ccc3cnc4ccc(-c5ccc(NS(C)(=O)=O)cc5)cc4c32)ccc1C [BMX-IN-1] + CC(=O)c1c(C)c2cnc(Nc3ccc(N4CCNCC4)cn3)nc2n(C2CCCC2)c1=O [Palbociclib] (partner 0.5 µM)
In short: (§1)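 Nuclei were stained with Hoechst during a one-step fixation (final 0.05% Triton X-100, 1% formaldehyde, 1 ug/ml Hoechst) carried out 5 days after dosing, then counted on 4× images. The cells, lung cancer lines in 1536-well plates, had been dosed by pin tool the day after seeding with one drug alone or a fixed anchor-drug dose plus five library-drug doses (not always all listed) in √10 steps. Relative viability is the nuclei count in treated wells divided by that in vehicle wells, and each value is the median of duplicate plates.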

Ibrutinib + Linsitinib = compound: C=CC(=O)N1CCC[C@@H](n2nc(-c3ccc(Oc4ccccc4)cc3)c3c(N)ncnc32)C1 [Ibrutinib] + C[C@]1(O)C[C@@H](c2nc(-c3ccc4ccc(-c5ccccc5)nc4c3)c3c(N)nccn32)C1 [Linsitinib] (partner 1 µM)
In short: as §1

Ibrutinib + Bortezomib = compound: C=CC(=O)N1CCC[C@@H](n2nc(-c3ccc(Oc4ccccc4)cc3)c3c(N)ncnc32)C1 [Ibrutinib] + CC(C)C[C@H](NC(=O)[C@H](Cc1ccccc1)NC(=O)c1cnccn1)B(O)O [Bortezomib] (partner 0.002 µM)
In short: as §1

PAC-1 + Pemetrexed = compound: C=CCc1cccc(/C=N/NC(=O)CN2CCN(Cc3ccccc3)CC2)c1O [PAC-1] + Nc1nc2[nH]cc(CCc3ccc(C(=O)N[C@@H](CCC(=O)O)C(=O)O)cc3)c2c(=O)[nH]1 [Pemetrexed] (partner 0.2 µM)
In short: as §1

Cell Line	relative viability (BMX-IN-1 + Palbociclib; first compound 0.02 µM)	relative viability (BMX-IN-1 + Palbociclib; first compound 0.2 µM)	relative viability (BMX-IN-1 + Palbociclib; first compound 0.6325 µM)	relative viability (BMX-IN-1 + Palbociclib; first compound 2 µM)	relative viability (Ibrutinib + Linsitinib; first compound 0.005 µM)	relative viability (Ibrutinib + Linsitinib; first compound 0.01581 µM)	relative viability (Ibrutinib + Linsitinib; first compound 0.05 µM)	relative viability (Ibrutinib + Linsitinib; first compound 0.1581 µM)	relative viability (Ibrutinib + Linsitinib; first compound 0.5 µM)	relative viability (Ibrutinib + Bortezomib; first compound 0.005 µM)	relative viability (Ibrutinib + Bortezomib; first compound 0.01581 µM)	relative viability (Ibrutinib + Bortezomib; first compound 0.05 µM)	relative viability (Ibrutinib + Bortezomib; first compound 0.1581 µM)	relative viability (Ibrutinib + Bortezomib; first compound 0.5 µM)	relative viability (PAC-1 + Pemetrexed; first compound 0.02 µM)	relative viability (PAC-1 + Pemetrexed; first compound 0.06325 µM)	relative viability (PAC-1 + Pemetrexed; first compound 0.2 µM)	relative viability (PAC-1 + Pemetrexed; first compound 2 µM)
LXF-289	0.65	0.615	0.639	0.588	0.988	0.96	0.923	0.955	0.927	1.09	0.985	0.966	0.959	0.914	0.857	0.859	0.873	0.916
NCI-H23	0.536	0.526	0.555	0.47	0.396	0.508	0.545	0.568	0.518	0.839	1.02	0.938	1.07	1.13	0.623	0.705	0.817	0.775
NCI-H322M	0.531	0.484	0.478	0.445	0.782	0.813	0.784	0.82	0.516	1.09	1.22	1.25	1.24	1.07	0.591	0.65	0.618	0.603
NCI-H441	0.199	0.205	0.234	0.21	0.64	0.615	0.585	0.518	0.495	0.518	0.498	0.45	0.575	0.479	0.296	0.254	0.28	0.237
NCI-H460	0.131	0.195	0.213	0.149	0.643	0.652	0.861	0.76	0.772	1.27	1.02	1.19	1.19	1.27	0.0683	0.0604	0.0685	0.0667
NCI-H520	0.254	0.218	0.218	0.219	0.928	0.76	0.971	1.03	0.883	0.567	0.45	0.553	0.662	0.338	0.723	0.686	0.639	0.58
NCI-H647	0.436	0.384	0.377	0.416	1.05	0.995	1.15	1.14	1.1	0.823	0.86	0.991	1.04	1.02	0.176	0.207	0.163	0.168
NCI-H650	0.293	0.332	0.331	0.353	–	0.688	–	1.19	0.889	–	0.706	–	1.12	0.932	0.893	0.931	0.968	1.03
NCI-H661	0.388	0.39	0.421	0.398	0.477	0.48	0.543	0.546	0.355	0.833	0.748	0.652	0.838	0.611	0.906	0.877	0.88	0.882
NCI-H838	0.241	0.198	0.222	0.24	1.02	1	0.983	1.08	1.01	0.781	0.729	0.687	0.741	0.673	0.22	0.235	0.238	0.206
NCI-H1355	0.394	0.392	0.399	0.404	–	0.666	0.713	0.885	0.67	–	1.14	1.18	1.2	1.16	1.01	1.06	1.01	1.11
NCI-H1437	0.326	0.294	0.354	0.328	1.01	0.926	0.989	1.09	0.993	0.647	0.476	0.449	0.482	0.603	0.31	0.32	0.305	0.3
NCI-H1651	0.598	0.559	0.511	0.533	0.99	0.765	0.901	0.991	0.927	0.953	0.971	–	0.822	0.967	0.596	0.538	0.525	0.712
NCI-H1666	0.64	0.672	0.606	0.628	0.86	0.628	0.615	0.955	0.422	0.768	0.79	0.802	0.695	0.977	0.643	0.889	0.849	0.799
NCI-H1734	0.37	0.375	0.386	0.329	0.801	0.887	0.885	0.885	0.745	0.799	0.923	1.02	0.989	0.929	0.379	0.427	0.418	0.419
NCI-H1755	0.394	0.439	0.509	0.422	1.02	0.92	1.06	1.02	0.903	0.914	0.983	1.02	0.95	0.969	0.442	0.43	0.448	0.441
NCI-H1792	–	0.64	1.26	0.613	0.553	0.44	0.506	0.608	0.53	–	0.984	1	0.85	0.93	0.712	0.894	0.829	0.957
